From patent publication US20090221505A1, “COMPOSITIONS AND METHODS RELATED TO SYNCHRONOUS SELECTION OF HOMING PEPTIDES FOR MULTIPLE TISSUES BY IN VIVO PHAGE DISPLAY” (priority 2004, published 2009)
Entries after “also recorded” stand apart in the source; their conditions may differ. Where no end group is shown, it is not given here.

Assays:
[1] = tested on: COS-1 cells transfected with PRLR; test: Phage binding to COS-1 cells transfected with PRLR (BRASIL); assay type: cell-based; conditions: for Binding of phage to PRLR-transfected COS-1 cells (in words) / Isolation by biopanning on cell-surface expressed PRLR: BRASIL; for Binding of phage to PRLR-transfected COS-1 cells (in words): FIG. 5A-5B; for Isolation by biopanning on cell-surface expressed PRLR: pancreas-homing phage pool (rounds 2 and 3), single round
Procedure: (§1) Phage-peptide binding to PRLR To identify peptides binding to PRLR, phage clones isolated from the pancreas in rounds 2 and 3 of the screening were individually amplified and pooled. For panning on immobilized PRLR, 10^9 TU of the mixed phage clones were incubated overnight at 4° C. with […] of purified recombinant rabbit PRLR (Protein Laboratories Rehovot, Israel), or BSA control, immobilized on plastic. Unbound phage were extensively washed off with PBS, and then the bound phage were recovered by infecting host K91 E. coli directly on the plate. For panning on cell surface-expressed PRLR, COS-1 cells (ATCC) were transiently transfected with pECE-PRLR as described (Wang et al, 1997) and subjected to biopanning with the amplified pancreas-isolated phage using the BRASIL protocol (Giordano et al, 2001). In each biopanning, bound phage were selected for tetracycline resistance, quantified by infecting host K91 E. coli and sequenced. […] Phage displaying forward (CRVASVLPC) (SEQ ID NO 30), reverse CPLVSAVRC(SEQ ID NO 34), and the alanine point mutants were titered in-parallel with insertless fd-tet phage and tested for binding to COS-1 cells transfected with PRLR by using the BRASIL method (Giordano et al, 2001). COS-1 cells not transfected with PRLR served as a negative control.

[2] = tested on: COS-1 cells transfected with PRLR; test: Immunofluorescence of phage binding and internalization into COS-1 cells transfected with PRLR; assay type: cell-based; conditions: 10^9 TU phage
Procedure: (§2) Immunolocalization Immunofluorescent detection of PRLR expression in COS-1 cells was performed by using anti-PRLR antibody MAI-610 (Affinity Bioreagents) diluted to 20 μg/ml and a secondary FITC-conjugated goat anti-mouse antibody F-0257 (Sigma) at 1 100 dilution. For validating phage binding and internalization into COS-1 cells transfected with PRLR, 10^9 TU of phage displaying PRLR-binding or mutant peptides were subjected to cell binding and internalization as described (Zurita et al, 2004). Immunodetection of cell-associated phage was performed with anti-fd antibody B-7786 (Sigma) at 1 500 dilution and a secondary Cy3-conjugated donkey anti-rabbit antibody 711-165-152 (Jackson) at 3 μg/ml. For phage-peptide immunolocalization in situ, 10^10 TU of iv-injected phage were let circulate for 5 min. Immunohistochemistry on formalin-fixed, paraffin-embedded mouse tissue sections was performed as described (Paqualini et al, 2001, Arap et al, 2002) by using anti-fd antibody B-7786 at 1 1,000 dilution and the LSAB+ peroxidase kit (DAKO)

Pancreas = test: Anti-phage immunohistochemistry after iv phage injection, pancreas; assay type: in vivo, mouse
Procedure: as §2

skeletal muscle = test: Anti-phage immunohistochemistry after iv phage injection, skeletal muscle; assay type: in vivo, mouse
Procedure: as §2

[3] = biological target: T1, purified recombinant rabbit PRLR (Oryctolagus cuniculus, UniProt P14787); test: Panning of pancreas-homing phage on immobilized PRLR (BSA control); assay type: binding; conditions: pancreas-homing phage pool (rounds 2 and 3), single round
T1 construct: purchased Protein Laboratories Rehovot, Israel
T1 sequence (P14787 25-234 limits assumed): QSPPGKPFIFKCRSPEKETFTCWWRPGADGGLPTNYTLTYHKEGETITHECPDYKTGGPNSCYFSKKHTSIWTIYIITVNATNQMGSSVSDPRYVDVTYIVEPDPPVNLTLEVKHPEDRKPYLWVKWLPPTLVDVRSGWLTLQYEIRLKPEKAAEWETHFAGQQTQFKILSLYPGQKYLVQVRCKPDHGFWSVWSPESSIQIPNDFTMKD
Procedure: as §1

[4] = biological target: PRLR (prolactin receptor) expressed on the surface of COS-1 cells transfected with pECE-PRLR; test: phage binding to prlR-transfected COS-1 cells
Sequence of PRLR (prolactin receptor) expressed on the surface of COS-1 cells transfected with pECE-PRLR (P05710 20-610): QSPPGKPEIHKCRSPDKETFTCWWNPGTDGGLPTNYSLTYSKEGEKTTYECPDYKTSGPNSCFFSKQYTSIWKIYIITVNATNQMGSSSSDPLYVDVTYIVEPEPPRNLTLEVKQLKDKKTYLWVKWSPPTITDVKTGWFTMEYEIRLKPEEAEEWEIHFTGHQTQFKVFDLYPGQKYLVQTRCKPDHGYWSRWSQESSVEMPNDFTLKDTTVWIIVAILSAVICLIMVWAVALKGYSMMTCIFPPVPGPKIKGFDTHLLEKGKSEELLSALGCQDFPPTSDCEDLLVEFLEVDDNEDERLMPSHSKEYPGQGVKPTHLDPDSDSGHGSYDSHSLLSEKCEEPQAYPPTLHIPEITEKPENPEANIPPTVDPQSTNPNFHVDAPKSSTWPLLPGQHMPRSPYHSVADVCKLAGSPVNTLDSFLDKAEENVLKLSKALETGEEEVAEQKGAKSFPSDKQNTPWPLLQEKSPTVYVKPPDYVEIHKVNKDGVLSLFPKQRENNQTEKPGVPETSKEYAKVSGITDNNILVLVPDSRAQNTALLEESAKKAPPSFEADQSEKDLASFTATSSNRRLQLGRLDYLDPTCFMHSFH

[5] = biological target: PRLR (prolactin receptor) expressed on the surface of COS-1 cells transfected with pECE-PRLR; test: phage binding to PRLR-transfected COS-1 cells, BRASIL

CPLVSAVRC
Binding of phage to PRLR-transfected COS-1 cells (in words) [1]: did not significantly decrease its binding to PRLR
Phage binding, internalization and co-localization with PRLR-expressing cells [2]: bound and internalized specifically by cells expressing PRLR

CRVASVLPC [tested as phage clone]
Phage localization in pancreas (Pancreas): localized to pancreatic blood vessels and the islets of Langerhans; also recorded: to pancreatic blood vessels and the pancreatic islet cells
Binding of phage to PRLR-transfected COS-1 cells (in words) [1]: Specific binding
Binding of phage to COS-1 cells transfected with prlR relative to background binding by controls ([1]; controls: muscle-homing phage or insertless phage): five
Binding of phage to COS-1 cells transfected with PRLR relative to nonspecific binding to non-transfected COS-1 cells ([1]; negative control: non-transfected COS-1 cells, FIG. 5A): 9 fold
Phage binding, internalization and co-localization with PRLR-expressing cells [2]: co-localized; also recorded: bound and internalized specifically by cells expressing PRLR
Phage localization in skeletal muscle (skeletal muscle): but not to skeletal muscle

CYAIGSFDC (phage-displayed) [control muscle-homing phage clone displaying …]
Phage localization in pancreas (Pancreas): but not in the pancreas
Phage localization in skeletal muscle (skeletal muscle): found predominantly in the vasculature of skeletal muscle; also recorded: found predominantly in the vasculature of the skeletal muscle

LPTLSLN (not fully specified)
Isolation by biopanning on cell-surface expressed PRLR [1]: isolated by biopanning on both in vitro immobilized and cell-surface expressed PRLR
Isolation by biopanning on in vitro immobilized PRLR [3]: isolated by biopanning on both in vitro immobilized and cell-surface expressed PRLR

QVHSSAY (not fully specified)
Isolation by biopanning on cell-surface expressed PRLR [1]: isolated by biopanning on both in vitro immobilized and cell-surface expressed PRLR
Isolation by biopanning on in vitro immobilized PRLR [3]: isolated by biopanning on both in vitro immobilized and cell-surface expressed PRLR

SGATGRA (not fully specified)
Isolation by biopanning on cell-surface expressed PRLR [1]: isolated by biopanning on both in vitro immobilized and cell-surface expressed PRLR
Isolation by biopanning on in vitro immobilized PRLR [3]: isolated by biopanning on both in vitro immobilized and cell-surface expressed PRLR

SGPTGRA (not fully specified)
Isolation by biopanning on cell-surface expressed PRLR [1]: isolated by biopanning on both in vitro immobilized and cell-surface expressed PRLR
Isolation by biopanning on in vitro immobilized PRLR [3]: isolated by biopanning on both in vitro immobilized and cell-surface expressed PRLR

VFSDYKR (not fully specified)
Isolation by biopanning on cell-surface expressed PRLR [1]: isolated by biopanning on both in vitro immobilized and cell-surface expressed PRLR
Isolation by biopanning on in vitro immobilized PRLR [3]: isolated by biopanning on both in vitro immobilized and cell-surface expressed PRLR

B1: …-phage (phage displaying the … motif, SEQ ID NO 30) (peptide, part only; not given: phage coat protein, part only)
peptide, part: CRVASVLPC
modifications: not fully specified (bridges); cysteine pairing not given here; also: displayed on filamentous phage (fUSE5)
fold binding over control phage (muscle-homing or insertless) [4]: 5 fold
fold binding over non-transfected COS-1 cells [5]: 9 fold
